Assay results taken from paper PMC8467595, “Protective Effects of Linearthin and Other Chalcone Derivatives from Aspalathus linearis (Rooibos) against UVB Induced Oxidative Stress and Toxicity in Human Skin Cells” (Plants, 2021).
In brackets after ≈: the same amount, converted by molar mass. Like-named read-outs stand apart in the source and are kept apart here.

Legend:
HaCaT cells [1] = assay: MTT cytotoxicity assay, pre-treatment 4 or 24 h with or without UVB irradiation; type: cell-based; details: Homo sapiens, read-out: IC50 (50% inhibition of viable cell number, MTT)
Experimental: (§1) The human epidermal keratinocytes (HaCaT) and melanoma (SK-MEL-1) cells used in this study were cultured in Roswell Park Memorial Institute (RPMI) 1640 media supplemented with antibiotics (100 U/mL streptomycin, 100 U/mL penicillin) and fetal calf serum (FCS, 10%). Cells were maintained at 37 °C in a humidified atmosphere of 5% CO2.
(§2) For experiments, before exposure to UVB, the cells were conditioned with various concentrations of total extract and isolated compounds thereof for 4 or 24 h. These periods were selected based on the half-life of the compounds as well as previous studies. Exposure to UVB was done according to a previous study. Cells were seeded (3 × 10^4) in 96-well tissue culture microtitre plates. Cell culture media was aspirated and the cells were overlayed with PBS. The cells were exposed to UVB light (80 mJ/cm^2) without the plastic lid. A UVIlink UV Crosslinker (UVitek Ltd., Aberdeen, UK) was fitted with six 8 Watt UV tubes giving a wavelength of 302 nm (Vilber Lourmat, Collégien, France). Control plates were not exposed to UVB light.
(§3) The MTT assay has been extensively used for determining the cytoprotective effects of several phytochemicals. To monitor cell viability as a measure of metabolic activity the MTT assay was performed. The conditioned HaCat and SK-MEL-1 cells (15,000 cells per well in 96-well plates) were incubated for 2 h using 100 μL MTT solution (5 mg/mL) after PBS washing. The MTT formazan crystals were then solubilised by DMSO resuspension. The optical density of the formazan product was read at 570 nm wavelength with a reference wavelength of 690 nm. The half-maximal inhibitory concentration (IC50) was determined.

SK-MEL-1 cells [2] = assay: as above; type: cell-based; details: Homo sapiens, read-out: IC50 (50% inhibition of viable cell number, MTT)
Experimental: as §1, §2, §3

HaCaT cells [3] = assay: ATP bioluminescent assay (Cell Titer-Glo); type: cell-based, human; details: for ATP vs control cell levels: 24 h pre-exposure, UVB irradiated cells
Experimental: as §2
The ATP bioluminescent assay was used to quantify cellular ATP. The Cell Titer-Glo® assay (Promega, Madison, WI, USA) was carried out according to the manufacturer’s instructions. Cells were seeded in a white microtitre plate (20,000 cells per well) to which the ATP Cell Titer-Glo® Reagent was added (50 μL). The plate was incubated for 30 min at room temperature (RT) in the dark. Luminescence was measured on a Multiskan Spectrum plate reader (Thermo Fisher Scientific, Waltham, MA, USA). Luminescence is proportional to ATP levels and expressed as relative light units (RLU).

HaCaT cells [4] = assay: Caspase 3/7 activation (ApoTox-Glo Triplex Assay); type: cell-based, human; details: UVB irradiated cells
Experimental: as §2
(§4) The ApoTox-Glo™ Triplex Assay (Promega) was used to assess cytotoxicity and apoptosis events in the same cell-based assay well according to the manufacturer’s instructions with no deviation from standard protocol. Both luminescence and fluorescence were detected using a plate reader.

SK-MEL-1 cells [5] = assay: Caspase 3/7 activation (ApoTox-Glo Triplex Assay); type: cell-based, human; details: SK-MEL-1, UVB irradiated cells
Experimental: as §2, §4

HaCaT cells [6] = assay: TBARS lipid peroxidation (MDA); type: cell-based, human; details: for MDA levels (lipid peroxidation): HaCaT
Experimental: as §2
(§5) The thiobarbituric acid reactive substances (TBARS) was used to quantify the levels of melondialdehyde (a marker of lipid peroxidation) in the supernatant of UVB irradiated and non-irradiated cells. The experiments were conducted as previously described. The optical density was measured at 532 nm with a reference wavelength of 600 nm using a plate reader. The mean optical density of five samples per treatment was calculated and divided by the absorption coefficient (156 mM^−1). Results were expressed as MDA concentration (μM). Reduced glutathione (GSH) was quantified using an in-house protocol with minor modifications. After the addition of reagents, the cells were lysed to allow quantification of GSH colourimetrically using a plate reader.

SK-MEL-1 cells [7] = assay: TBARS lipid peroxidation (MDA); type: cell-based, human; details: SK-MEL-1, 24-h pre-treatment, after UVB exposure
Experimental: For experiments, before exposure to UVB, the cells were conditioned with various concentrations of total extract and isolated compounds thereof for 4 or 24 h. […] Exposure to UVB was done according to a previous study. Cells were seeded (3 × 10^4) in 96-well tissue culture microtitre plates. Cell culture media was aspirated and the cells were overlayed with PBS. The cells were exposed to UVB light (80 mJ/cm^2) without the plastic lid. A UVIlink UV Crosslinker (UVitek Ltd., Aberdeen, UK) was fitted with six 8 Watt UV tubes giving a wavelength of 302 nm (Vilber Lourmat, Collégien, France) [22]. Control plates were not exposed to UVB light. The thiobarbituric acid reactive substances (TBARS) was used to quantify the levels of melondialdehyde (a marker of lipid peroxidation) in the supernatant of UVB irradiated and non-irradiated cells. The experiments were conducted as previously described [45]. The optical density was measured at 532 nm with a reference wavelength of 600 nm using a plate reader. The mean optical density of five samples per treatment was calculated and divided by the absorption coefficient (156 mM^−1). Results were expressed as MDA concentration (μM).

SK-MEL-1 cells [8] = assay: ATP bioluminescent assay (Cell Titer-Glo); type: cell-based, human; details: SK-MEL-1, 10 µg/mL, 24-h pre-treatment
Experimental: For experiments, before exposure to UVB, the cells were conditioned with various concentrations of total extract and isolated compounds thereof for 4 or 24 h. These periods were selected based on the half-life of the compounds as well as previous studies [22, 32]. Exposure to UVB was done according to a previous study. Cells were seeded (3 × 10^4) in 96-well tissue culture microtitre plates. Cell culture media was aspirated and the cells were overlayed with PBS. The cells were exposed to UVB light (80 mJ/cm^2) without the plastic lid. A UVIlink UV Crosslinker (UVitek Ltd., Aberdeen, UK) was fitted with six 8 Watt UV tubes giving a wavelength of 302 nm (Vilber Lourmat, Collégien, France) [22]. Control plates were not exposed to UVB light. The ATP bioluminescent assay was used to quantify cellular ATP. The Cell Titer-Glo® assay (Promega, Madison, WI, USA) was carried out according to the manufacturer’s instructions. Cells were seeded in a white microtitre plate (20,000 cells per well) to which the ATP Cell Titer-Glo® Reagent was added (50 μL). The plate was incubated for 30 min at room temperature (RT) in the dark. Luminescence was measured on a Multiskan Spectrum plate reader (Thermo Fisher Scientific, Waltham, MA, USA). Luminescence is proportional to ATP levels and expressed as relative light units (RLU).

HaCaT cells [9] = assay: Reduced glutathione (GSH) quantification; type: cell-based, human
Experimental: as §2, §5

SK-MEL-1 cells [10] = assay: Reduced glutathione (GSH) quantification; type: cell-based, human; details: SK-MEL-1 pre-treated cells
Experimental: as §2, §5

[11] = light or radiation study, UVB irradiation after pre-treatment 4 h
[12] = light or radiation study, UVB irradiation after pre-treatment 24 h
[13] = SK-MEL-1, SK-MEL-1, No UV, pre-treatment 4 h
[14] = SK-MEL-1, SK-MEL-1, No UV, pre-treatment 24 h
[15] = SK-MEL-1, light or radiation study, SK-MEL-1, UVB irradiation after pre-treatment 4 h
[16] = SK-MEL-1, light or radiation study, SK-MEL-1, UVB irradiation after pre-treatment 24 h

Row | Structure (SMILES) | IC50 (HaCaT cells [1]; No UV, pre-treatment 4 h) | IC50 (HaCaT cells [1]; No UV, pre-treatment 24 h) | IC50 (HaCaT cells [1]; [11]) | IC50 (HaCaT cells [1]; [12]) | IC50 (SK-MEL-1 cells [2]; [13]) | IC50 (SK-MEL-1 cells [2]; [14]) | IC50 (SK-MEL-1 cells [2]; [15]) | IC50 (SK-MEL-1 cells [2]; [16]) | ATP vs control cell levels (HaCaT cells [3]) | caspase 3/7 activation (HaCaT cells [4]) | caspase 3/7 activation (SK-MEL-1 cells [5]) | MDA levels (lipid peroxidation) (HaCaT cells [6]; 4-h pre-treatment, UVB exposed, vs cells with no isolate intervention) | MDA formation by UVB vs cells not exposed to UVB (HaCaT cells [6]; lowest concentration, 4-h pre-treatment, cell line not given) | MDA levels (lipid peroxidation) (SK-MEL-1 cells [7]) | ATP in UVB irradiated vs non-UVB irradiated cells (SK-MEL-1 cells [8]) | MDA levels (lipid peroxidation) (HaCaT cells [6]; 24-h pre-treatment, after UVB exposure) | GSH content (HaCaT cells [9]; pre-treatment 4 h, UVB exposed and non-exposed cells) | GSH levels (HaCaT cells [9]; pre-treatment 24 h) | GSH levels, resistance to UVB irradiation (SK-MEL-1 cells [10]) | ATP in UVB irradiated vs non-irradiated cells (HaCaT cells [3]; 100 µg/mL)
1 | O=C(CCc1ccc(O)c(O)c1)c1c(O)cc(O)c2c1OC1(C2)O[C@@H](CO)[C@H](O)[C@H]1O (relative stereo) [Compound 1, linearthin] | 117 µg/mL (≈ 269 µM) | 105 µg/mL (≈ 242 µM) | 266 µg/mL (≈ 612 µM) | 282 µg/mL (≈ 649 µM) | 330 µg/mL (≈ 759 µM) | 124 µg/mL (≈ 285 µM) | 248 µg/mL (≈ 572 µM) | 143 µg/mL (≈ 328 µM) | maintain ATP above control cell levels | inhibited the activation of executioner caspases in a dose-dependent manner | inhibited the activation of executioner caspases in a dose-dependent manner | only the lowest concentration reduced MDA significantly | circumvent MDA formation by UVB to below levels observed in cells not exposed to UVB | – | – | – | – | – | – | –
2 | O=C(CCc1ccc(O)c(O)c1)c1c(O)cc(O)c(C2OC(CO)C(O)C(O)C2O)c1O (stereo not drawn) [Compound 2, aspalathin] | 209 µg/mL (≈ 462 µM) | 122 µg/mL (≈ 270 µM) | 399 µg/mL (≈ 882 µM) | 145 µg/mL (≈ 321 µM) | 93.6 µg/mL (≈ 207 µM) | 66.4 µg/mL (≈ 147 µM) | 72.2 µg/mL (≈ 160 µM) | 70 µg/mL (≈ 155 µM) | – | inhibited the activation of executioner caspases in a dose-dependent manner | inhibited the activation of executioner caspases in a dose-dependent manner | – | – | significant (p < 0.05) reduction in MDA levels at all tested concentrations | significantly increase ATP to above levels observed in non-UVB irradiated cells | significant (p < 0.05) reduction in MDA levels at all tested concentrations | only active at the lowest concentration tested | only active at the lowest concentration tested | improved GSH levels | –
3 | O=C(CCc1ccc(O)cc1)c1c(O)cc(O)c(C2OC(CO)C(O)C(O)C2O)c1O (stereo not drawn) [Compound 3, nothofagin] | 144 µg/mL (≈ 330 µM) | 123 µg/mL (≈ 282 µM) | 196 µg/mL (≈ 450 µM) | 164 µg/mL (≈ 376 µM) | 208 µg/mL (≈ 477 µM) | 210 µg/mL (≈ 482 µM) | 119 µg/mL (≈ 273 µM) | 123 µg/mL (≈ 282 µM) | maintain ATP above control cell levels | inhibited the activation of executioner caspases in a dose-dependent manner | inhibited the activation of executioner caspases in a dose-dependent manner | – | – | – | significantly increase ATP to above levels observed in non-UVB irradiated cells | – | – | – | – | increase ATP in UVB irradiated cells to above levels observed in non-irradiated cells
